Measured values taken from publication PMC13254586, “C-terminal dimerization motifs control asynchronous chain elongation during modular polyketide biosynthesis [drawing 1]” (The Journal of Biological Chemistry, 2026).

What was measured:
M1-DD = biological target: T1, M1-DD (Amycolatopsis mediterranei, UniProt O54666); experiment: cryo-EM structure; assay type: binding; conditions: covalent on CP Ser1538; Ppant occupies KS active site tunnel; elongation mode; 3.22 Å; Fab 1B2 bound
T1 construct: gene rifA; RIFS module 1 (KS-AT-DH0-KR-CP) with N- and C-terminal docking domains of the erythromycin assembly line, C-terminal His6; holo form, E. coli BAP1; homodimer
T1 sequence (O54666 631-2179): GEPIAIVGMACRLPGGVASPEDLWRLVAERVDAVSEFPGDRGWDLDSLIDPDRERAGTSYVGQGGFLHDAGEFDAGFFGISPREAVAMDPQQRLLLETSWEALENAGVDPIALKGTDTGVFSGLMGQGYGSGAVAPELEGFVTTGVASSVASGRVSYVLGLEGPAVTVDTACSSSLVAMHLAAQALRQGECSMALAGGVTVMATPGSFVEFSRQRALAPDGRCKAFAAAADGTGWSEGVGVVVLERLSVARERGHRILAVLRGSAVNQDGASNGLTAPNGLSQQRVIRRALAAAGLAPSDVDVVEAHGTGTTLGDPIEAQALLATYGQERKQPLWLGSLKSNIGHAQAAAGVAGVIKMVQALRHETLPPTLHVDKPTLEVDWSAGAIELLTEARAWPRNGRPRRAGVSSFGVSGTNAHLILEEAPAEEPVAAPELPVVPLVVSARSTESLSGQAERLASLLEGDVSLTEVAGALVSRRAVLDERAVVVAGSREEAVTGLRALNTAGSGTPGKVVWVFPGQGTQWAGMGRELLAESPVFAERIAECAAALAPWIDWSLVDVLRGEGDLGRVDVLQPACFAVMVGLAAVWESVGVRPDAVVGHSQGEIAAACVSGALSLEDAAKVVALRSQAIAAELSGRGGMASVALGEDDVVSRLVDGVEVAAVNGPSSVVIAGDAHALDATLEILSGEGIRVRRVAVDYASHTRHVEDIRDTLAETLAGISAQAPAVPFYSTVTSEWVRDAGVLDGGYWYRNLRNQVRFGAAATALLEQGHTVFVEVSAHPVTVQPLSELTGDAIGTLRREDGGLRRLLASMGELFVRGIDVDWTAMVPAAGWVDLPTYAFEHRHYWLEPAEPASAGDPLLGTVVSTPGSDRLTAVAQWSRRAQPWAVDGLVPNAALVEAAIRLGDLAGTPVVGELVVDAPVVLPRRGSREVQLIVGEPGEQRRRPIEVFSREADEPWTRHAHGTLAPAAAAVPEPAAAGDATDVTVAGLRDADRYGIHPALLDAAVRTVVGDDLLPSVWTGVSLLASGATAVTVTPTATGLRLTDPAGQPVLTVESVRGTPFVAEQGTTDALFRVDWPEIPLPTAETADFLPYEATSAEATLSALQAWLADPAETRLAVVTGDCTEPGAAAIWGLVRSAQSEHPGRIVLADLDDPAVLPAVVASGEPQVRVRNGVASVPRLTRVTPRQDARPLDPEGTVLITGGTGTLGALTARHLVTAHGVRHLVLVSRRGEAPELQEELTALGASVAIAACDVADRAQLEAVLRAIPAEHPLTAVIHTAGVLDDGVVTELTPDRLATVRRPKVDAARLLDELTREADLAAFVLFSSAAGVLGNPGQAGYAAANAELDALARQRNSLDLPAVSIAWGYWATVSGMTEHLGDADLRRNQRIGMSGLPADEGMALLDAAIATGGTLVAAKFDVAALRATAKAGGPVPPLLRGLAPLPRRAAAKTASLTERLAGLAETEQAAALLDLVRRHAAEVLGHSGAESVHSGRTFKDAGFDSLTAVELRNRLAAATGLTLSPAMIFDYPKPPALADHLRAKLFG

LM-M1-DD = biological target: T2, LM-M1-DD (Amycolatopsis mediterranei, UniProt O54666); experiment: LC-MS/MS-MRM of hydrolysed diketide, single turnover; assay type: biochemical; conditions: ATP/Mg2+, racemic MeMal-CoA, pH 7.3, room temperature
T2 construct: gene rifA; RIFS loading module plus module 1 bimodule (A-CP, KS-AT-DH0-KR-CP) with C-terminal docking domain (DD) of the erythromycin synthase; holo form, E. coli BAP1; Ni-NTA purified; homodimer
T2 sequence (O54666 1-2179 limits assumed): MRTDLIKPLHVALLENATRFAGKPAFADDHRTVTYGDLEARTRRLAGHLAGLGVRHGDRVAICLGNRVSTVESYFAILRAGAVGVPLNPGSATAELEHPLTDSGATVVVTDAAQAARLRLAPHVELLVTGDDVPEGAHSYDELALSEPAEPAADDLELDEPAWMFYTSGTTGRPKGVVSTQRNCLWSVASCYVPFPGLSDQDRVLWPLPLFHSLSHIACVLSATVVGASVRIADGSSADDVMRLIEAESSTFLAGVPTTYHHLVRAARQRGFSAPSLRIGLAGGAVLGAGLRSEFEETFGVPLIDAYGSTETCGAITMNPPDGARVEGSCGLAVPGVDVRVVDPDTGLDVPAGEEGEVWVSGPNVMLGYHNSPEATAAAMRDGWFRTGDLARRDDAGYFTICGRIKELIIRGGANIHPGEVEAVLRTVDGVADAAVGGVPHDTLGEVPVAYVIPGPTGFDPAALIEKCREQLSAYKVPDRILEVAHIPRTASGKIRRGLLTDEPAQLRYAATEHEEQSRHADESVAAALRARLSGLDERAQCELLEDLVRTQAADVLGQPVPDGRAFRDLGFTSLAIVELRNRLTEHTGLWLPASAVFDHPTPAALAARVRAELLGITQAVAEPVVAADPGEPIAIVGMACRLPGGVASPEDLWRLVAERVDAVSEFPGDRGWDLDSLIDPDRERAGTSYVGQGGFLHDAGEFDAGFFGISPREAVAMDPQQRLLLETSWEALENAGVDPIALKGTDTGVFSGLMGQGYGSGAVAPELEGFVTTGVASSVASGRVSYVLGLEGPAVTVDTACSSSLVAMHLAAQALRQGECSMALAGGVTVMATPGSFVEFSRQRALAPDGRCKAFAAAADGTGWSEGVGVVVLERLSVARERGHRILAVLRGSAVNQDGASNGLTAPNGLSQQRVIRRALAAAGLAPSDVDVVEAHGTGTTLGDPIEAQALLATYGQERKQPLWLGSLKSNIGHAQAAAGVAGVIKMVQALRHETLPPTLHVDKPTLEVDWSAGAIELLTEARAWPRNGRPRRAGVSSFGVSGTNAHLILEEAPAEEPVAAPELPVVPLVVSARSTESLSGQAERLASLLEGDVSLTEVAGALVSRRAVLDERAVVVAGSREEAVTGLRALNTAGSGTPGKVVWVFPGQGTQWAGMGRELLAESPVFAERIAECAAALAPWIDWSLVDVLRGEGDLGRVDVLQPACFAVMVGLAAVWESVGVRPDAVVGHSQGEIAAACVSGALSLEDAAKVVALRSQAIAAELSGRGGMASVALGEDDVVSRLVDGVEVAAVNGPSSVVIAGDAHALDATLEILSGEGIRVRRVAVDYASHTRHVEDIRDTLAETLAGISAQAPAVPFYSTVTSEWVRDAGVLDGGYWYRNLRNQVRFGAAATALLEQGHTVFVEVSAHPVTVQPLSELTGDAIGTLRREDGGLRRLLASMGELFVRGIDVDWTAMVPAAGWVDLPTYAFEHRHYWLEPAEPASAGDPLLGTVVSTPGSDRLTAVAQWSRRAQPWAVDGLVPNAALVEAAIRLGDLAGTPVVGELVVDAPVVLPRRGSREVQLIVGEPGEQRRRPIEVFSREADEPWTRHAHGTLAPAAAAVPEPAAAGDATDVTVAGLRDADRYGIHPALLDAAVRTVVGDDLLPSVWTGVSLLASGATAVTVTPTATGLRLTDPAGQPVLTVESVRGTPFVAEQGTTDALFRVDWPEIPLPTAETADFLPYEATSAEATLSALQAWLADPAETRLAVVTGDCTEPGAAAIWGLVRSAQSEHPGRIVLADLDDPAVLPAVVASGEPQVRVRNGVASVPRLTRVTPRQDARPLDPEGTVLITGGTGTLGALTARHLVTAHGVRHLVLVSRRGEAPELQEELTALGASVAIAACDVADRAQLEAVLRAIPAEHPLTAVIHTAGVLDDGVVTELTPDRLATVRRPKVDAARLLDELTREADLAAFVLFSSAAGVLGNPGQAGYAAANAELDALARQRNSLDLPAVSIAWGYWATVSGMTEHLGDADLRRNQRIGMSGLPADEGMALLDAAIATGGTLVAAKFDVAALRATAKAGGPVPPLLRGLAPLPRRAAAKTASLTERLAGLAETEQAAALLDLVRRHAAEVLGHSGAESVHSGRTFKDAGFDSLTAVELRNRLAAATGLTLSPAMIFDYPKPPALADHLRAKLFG

LM-M1-TEII° = biological target: T3, LM-M1-TEII° (Amycolatopsis mediterranei, UniProt O54666); experiment: as above; assay type: biochemical; conditions: ATP/Mg2+, racemic MeMal-CoA, NADPH; pH 7.3; room temperature
T3 construct: gene rifA; holo form, E. coli BAP1; homodimer

Structure (SMILES): CC(C)(COP(=O)(O)O)[C@@H](O)C(=O)NCCC(=O)NCCS [4′-phosphopantetheine]
- cryo-EM structure (M1-DD): within the KS active site tunnel occupied by the Ppant cofactor

Structure (SMILES): NC(=O)C1=CN([C@@H]2O[C@H](COP(=O)(O)OP(=O)(O)OC[C@H]3O[C@@H](n4cnc5c(N)ncnc54)[C@H](OP(=O)(O)O)[C@@H]3O)[C@@H](O)[C@H]2O)C=CC1 [NADPH]
- LC-MS/MS-MRM of hydrolysed diketide, single turnover (LM-M1-DD; 1 mM NADPH present or absent, benzoate): expected time- and NADPH-dependent accumulation of hydrolyzed keto-d2

Structure (SMILES): O=C(O)c1ccccc1 [benzoate]
- LC-MS/MS-MRM of hydrolysed diketide, single turnover (LM-M1-DD; NADPH): both LM-M1-DD and LM-M1-TEII° were catalytically active
- LC-MS/MS-MRM of hydrolysed diketide, single turnover (LM-M1-TEII°): both LM-M1-DD and LM-M1-TEII° were catalytically active
